These are literature values, as cited in patent US20210030918A1, “COATING OF FIBERS WITH DIPEPTIDE NANOSTRUCTURES USING ULTRASONIC CAVITATION” (Ramot at Tel-Aviv University Ltd., priority 2019, published 2021).

With `COc1cc(/C=C/C(=O)CC(=O)/C=C/c2ccc(O)c(OC)c2)ccc1O` [Curcumin, (1E,6E)-1,7-bis(4-hydroxy-3-methoxyphenyl)-1,6-heptadiene-3,5-dione], the aqueous solubility result is “poor”.
